# From US20260199284A1, “SPECIFIC VASH COMPOUNDS (SVC) INHIBITORS FOR HEART DISEASES” (MT ACT, priority 2023, published 2026)
# “Also recorded” adds a separate entry of the source.
# System: cardiomyocytes isolated from failing human hearts
# Assay: Human myocyte contractility
# Type: cell-based
# Experimental: Once excised, hearts were transported from the operating room to the laboratory in cold cardioplegia. The myocyte isolation was performed as previously described. An apical wedge was dissected from left ventricular free wall and a catheter was placed into the left anterior descending artery. The cannula was flushed with cold saline to evaluate perfusion of the wedge and tie any major vessels. The myocardium was then perfused with warm non-recirculating Krebs-Henseleit buffer (KHB) solution (12.5 mM glucose, 5.4 mM KCl, 1 mM lactic acid, 1.2 mM MgSO4, 130 mM NaCl, 1.2 mM NaH2PO4, 25 mM NaHCO3, 2 mM Na pyruvate, 20 mM BDM and 10 mM taurine, pH 7.4) for 10 minutes. Then, the myocardium was perfused with recirculated KHB and type II collagenase (294 units/mL) (Worthington Biochemical Corp., Lakewood, NJ, USA) for 5 minutes before calcium was slowly re-introduced to reach a final concentration of 1 mM. The collagenase and calcium supplemented KHB were recirculated for 25-30 minutes depending on the how the myocardium digested. The tissue was then removed from the cannula, rinsed in KHB with 1% bovine serum albumin (BSA) to stop the digestion, and then minced. The cell suspension was then filtered using 280-uM nylon mesh, centrifuged (25×g for 2 min), and resuspended in normal Tyrode's solution. Cells were treated with VASH inhibitor (VASHi) (1 mM) or vehicle (DMSO) before being placed in an incubator for 4 hours.
# Contractility was assessed as previously described. After the 4-hour incubation with either VASHi or vehicle was complete, cardiomyocytes were transferred to 35 mm glass-bottom dishes. Contractility data was collected at 37 C. Cardiomyocytes were paced at 0.5 Hz using a myopacer (IonOptix MYP100) with custom fabricated carbon electrodes lowered into the glass bottom dish. Cells were paced for 10-15 seconds to reach steady state contractions and then data was recorded using high-speed video imaging with a Nikon PU-2000 inverted microscope with a 40× objective (IonWizard, IonOptix). A minimum of 5 contractions were recorded for Each myocyte and analyzed offline.
# Cardiomyocytes were isolated from failing (N=4) and non-failing (N=3) human hearts, then treated with vehicle or VASHi (SVC-02) to evaluate bioactivity of the small molecule compound in primary human cardiomyocytes. Patient demographics are detailed in a table (FIG. 26). Compiled traces from all non-failing and failing patients are shown (FIG. 27).
smiles,measurement,setting,value
CCOC(=O)[C@H](Cc1ccc(OCC)cc1)NC(=O)[C@H]1O[C@@H]1C(=O)N[C@@H](Cc1ccc(OCC)cc1)C(=O)OCC [SVC_02],contraction velocity,,did not significantly change
same,fractional shortening,,did not significantly change
same,resting sarcomere length,,did not significantly change
same,time to 50% relaxation / relaxation,4 hours incubation,improved; also recorded: shortened the time to 50% relaxation
